The source of these data is paper PMC11059152, “Discovery of an Aldo-Keto reductase 1C3 (AKR1C3) degrader” (Communications Chemistry, 2024).

Holding throughout (type): biochemical
For experiment [1], the target named is T1, AKR1C2 (Homo sapiens, UniProt P52895).
T1 construct: homogeneous recombinant enzyme
T1 sequence (P52895 1-323): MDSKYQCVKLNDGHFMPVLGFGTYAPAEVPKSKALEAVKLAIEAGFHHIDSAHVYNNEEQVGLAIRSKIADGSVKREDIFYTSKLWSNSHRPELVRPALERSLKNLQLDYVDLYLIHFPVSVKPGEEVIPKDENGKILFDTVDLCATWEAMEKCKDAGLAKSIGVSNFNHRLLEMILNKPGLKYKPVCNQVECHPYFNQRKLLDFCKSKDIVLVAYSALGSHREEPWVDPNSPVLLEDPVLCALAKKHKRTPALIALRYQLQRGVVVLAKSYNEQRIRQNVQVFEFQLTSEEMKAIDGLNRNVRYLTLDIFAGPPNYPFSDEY
Kind of experiment: oxidation by purified enzyme, absorbance at […] nm; Km. The conditions noted are these: cited from earlier work.

Experiment [2] has as its target T2, AKR1C1 (Homo sapiens, UniProt Q04828).
T2 construct: homogeneous recombinant enzyme
T2 sequence (Q04828 1-323): T1 sequence (P52895 1-323) with V38T, H47R, V54L, S87C, M151V, H170R, L172Q
As to the kind of experiment: specific activity of purified enzyme, absorbance at […] nm.

Experiment [3] deals with T3, AKR1C3 (Homo sapiens, UniProt P42330).
T3 construct: homogeneous recombinant enzyme
T3 sequence (P42330 1-323): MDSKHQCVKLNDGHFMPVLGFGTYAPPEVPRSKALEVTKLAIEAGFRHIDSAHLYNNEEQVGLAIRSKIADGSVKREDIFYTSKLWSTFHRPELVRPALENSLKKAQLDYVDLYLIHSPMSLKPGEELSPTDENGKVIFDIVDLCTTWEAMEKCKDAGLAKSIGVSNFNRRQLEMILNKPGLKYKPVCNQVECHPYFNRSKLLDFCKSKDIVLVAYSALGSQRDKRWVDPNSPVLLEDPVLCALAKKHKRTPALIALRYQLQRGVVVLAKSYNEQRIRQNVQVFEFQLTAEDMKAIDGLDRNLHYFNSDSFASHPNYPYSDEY
Kind of experiment: inhibition of NADP+-dependent S-tetralol oxidation by recombinant enzyme.

The structures appear in SMILES notation. Positions count from the first letter of the chain named.

Regarding `O[C@H]1CCCc2ccccc21` [S-tetralol, (S)-(+)-1,2,3,4-tetrahydro-1-naphthol], in experiment [1], the Km – broadly, the concentration of substrate that gives half-maximal velocity – was 15 µM. For the same compound, the “specific activity of purified enzyme, absorbance at 340 nm” value in experiment [2] came out at 1.4 µmol/min/mg.
For the compound `C#CCOc1ccc(CNC(=O)c2cc(/C=C/C(=O)O)cc(-c3ccccc3)c2)cc1` [compound 4, warhead 4], in experiment [3], the IC50 – broadly, the concentration needed to halve the response being measured – turned out to be 62 ± 1 nM.
On the same count and under the same terms, as for `O=C(O)/C=C/c1cc(C(=O)NCc2ccc(OCc3cn(CCOCCOCC(=O)Nc4cccc5c4CN(C4CCC(=O)NC4=O)C5=O)nn3)cc2)cc(-c2ccccc2)c1` (stereo not shown) [compound 5, (E)-3-(5-((4-((1-(2-(2-(2-((2-(2,6-dioxopiperidin-3-yl)-1-oxoisoindolin-4-yl)amino)-2-oxoethoxy)ethoxy)ethyl)-1H-1,2,3-triazol-4-yl)methoxy)benzyl)carbamoyl)-[1,1’-biphenyl]-3-yl)acrylic acid], the figure is 77 ± 2 nM.
